Consider one compound from patent US20250042861A1, “TETRAHYDROPYRIDAZINES, COMPOSITIONS COMPRISING THEM AND USES THEREOF” (Novo Nordisk A/S, priority 2021, published 2025).

In experiment [1] the target is T1, human CB1 receptor (Homo sapiens, UniProt P21554).
T1 construct: expressed in transfected cells; host or cells: HEK293
Description: bioSensAll GAPL-Gi2 BRET biosensor assay in transfected HEK293 cells, inhibition of CP-55,940 response. It counts as cell-based. Conditions: HEK293 cells transfected with hCB1 and GAPL-Gi2 biosensor, test compound then EC75 of CP-55,940 (0.1 nM), overnight incubation, read-out: CB1 wt Gi2 EC50. The procedure: (§1) Using polyethylenimine (PEI) transfection agent, HEK293 cells were transfected in suspension with the human CB1 or CB1 b receptor and one of the following bioSensAll® assays: GAPL-Gi2, or β-arrestin plasma membrane (PM) translocation biosensor (+GRK2). Cells were directly seeded in 96-well plates immediately following transfection.
(§2) Cells were incubated with coelenterazine (luciferase substrate) and different test compounds prior to the measurement of BRET signals.
(§3) Used in this project are i) Ga plasma membrane (GAPL) biosensors and the ii) β-arrestin plasma membrane translocation biosensor. • i) GAPL sensors are used to monitor the activation of heterotrimeric G proteins at the plasma membrane upon receptor stimulation. Specifically, these multimolecular BRET sensors detect the plasma membrane recruitment of proteins that interact with active Ga subunits in a G protein family-selective manner. G protein activation following receptor stimulation generally leads to an increase in the BRET signal. • ii) The multimolecular β-arrestin membrane recruitment biosensors allow for real-time spatio-temporal monitoring of β-arrestin 1 and β-arrestin 2 following GPCR activation. Specifically, these β-arrestin sensors were designed to detect the recruitment of proteins to the plasma membrane β-arrestin PM) with localization to compartment resulting in an increased BRET signal. c) Cell Culture Conditions HEK293 cells were maintained in Dulbecco's Modified Eagle Medium (DMEM) (Wisent; cat #319-030-CL: without sodium pyruvate, with 4.5 g/L glucose, without L-glutamine) supplemented with 1% penicillin-streptomycin (Wisent; cat #450-201-EL) and 2 or 10% fetal bovine serum (Wisent cat #090150).
(§4) HEK293 cells were co-transfected with hCB1 or hCB1b and one of the above-listed bioSensAll® assays. For each transfection condition: • the total amount of transfected DNA was kept constant at 1 μg per mL of cell culture to be transfected; whenever necessary, salmon sperm DNA (Invitrogen, cat #15632011) was used as ‘carrier’ DNA to supplement plasmid DNA (i.e., biosensor and receptor); • the PEI (polyethylenimine 25 kDa linear, PolyScience, cat #23966) to DNA ratio (ug:ug) was fixed at 3:1. Transfections were Carried Out as Follows: • DNA and PEI were first diluted separately in 150 mM NaCl. The volume of the diluent in each tube corresponds to 5% of the cell culture volume to be transfected. • Once DNA and PEI were diluted, the PEI-containing solution was added to the DNA solution and the DNA/PEI mixture immediately vortexed for 5 seconds. • The DNA/PEI mixture was incubated for at least 20 minutes at room temperature to allow for the formation of DNA/PEI complexes. • During the incubation, HEK293 cells were detached, counted and re-suspended in culture medium (composition specified above). • At the end of the incubation period, the DNA/PEI mixture was added to the cells. • Cells were finally distributed in 96-well plates (White Opaque 96-well/Microplates, Greiner, cat #655083 or CulturPlate-96, White Opaque 96-well Microplate, PerkinElmer, cat #6005688) at a density of 30 000 cells per well.
(§5) • Using 450-Select TS Biotek plate washer, culture medium was aspirated and replaced with 100 μl of Hank's Balanced Salt Solution buffer (HBSS) (Wisent, cat #319-067CL: without red phenol; with sodium bicarbonate, with calcium and magnesium, with HEPES) per well. This process was performed a total of two times (i.e., 2 washes). • After the washing step, the HP D300 digital dispenser (Tecan) was used to inject increasing doses (12) of test compounds (ranging from 0-600 nM) to wells. […]
(In general: In BRET a luciferase serves as donor, and the signal depends on an acceptor being close.)

Experiment [2] has as its target T1, human CB1 receptor. Description: bioSensAll β-arrestin plasma membrane (PM) translocation BRET biosensor (+GRK2) assay in transfected HEK293 cells, inhibition of CP-55,940 response. It counts as cell-based. The following applies: HEK293 cells transfected with hCB1 and β-arrestin PM translocation biosensor (+GRK2), test compound then EC75 of CP-55,940 (100 nM), overnight incubation, read-out: CB1 wt βarr2 EC50. The method, then: as §1, §2, §3, §4, §5

T1 sequence (P21554 whole entry): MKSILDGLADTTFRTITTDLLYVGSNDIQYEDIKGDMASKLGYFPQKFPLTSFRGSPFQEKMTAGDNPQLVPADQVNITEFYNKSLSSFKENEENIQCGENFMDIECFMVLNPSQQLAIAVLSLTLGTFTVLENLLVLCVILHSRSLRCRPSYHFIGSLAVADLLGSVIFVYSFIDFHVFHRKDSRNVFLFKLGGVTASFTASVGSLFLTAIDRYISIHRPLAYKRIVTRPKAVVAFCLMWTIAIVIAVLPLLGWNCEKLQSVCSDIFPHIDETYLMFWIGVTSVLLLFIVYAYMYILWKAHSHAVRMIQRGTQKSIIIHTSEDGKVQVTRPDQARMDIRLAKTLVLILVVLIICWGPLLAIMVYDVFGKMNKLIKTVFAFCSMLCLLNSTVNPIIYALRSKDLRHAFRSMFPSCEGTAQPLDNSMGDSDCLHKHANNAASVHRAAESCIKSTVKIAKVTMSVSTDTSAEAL

The EC50 is the concentration that produces a half-maximal response. On to `CC(=O)N/C(N)=N/C(=N/S(=O)(=O)N1CCC(F)(F)CC1)N1CCC(c2ccccc2)C(c2ccc(Cl)cc2)=N1` (single isomer, unassigned) [Compound 4 Isomer 2, N-[(E)-N′-[(Z)-C-[6-(4-chlorophenyl)-5-phenyl-4,5-dihydro-3H-pyridazin-2-yl]-N-[(4,4-difluoro-1-piperidyl)sulfonyl]carbonimidoyl]carbamimidoyl]acetamide], for which the EC50 in experiment [1] is 0.67 nM; in experiment [2], 1.4 nM.
